Assay results published in patent US9943525B2, “Composition for reducing cell senescence comprising Rho-kinase inhibitor and use thereof” (Samsung Electronics Co., Ltd., priority 2014, dated 2018).
“Also recorded” adds a separate entry of the source.

How the values were obtained:
[1] = tested on: senescent fibroblasts (after 37 cell passages); test: cell cycle analysis (Muse Cell Cycle Kit); format: cell-based, human; conditions: 5 μM; 4 weeks; vs DMSO control; FIG. 4
Method: The senescent fibroblasts (after 37 cell passages) were cultured in culture media respectively supplemented with 5 μM of Y-27632 (A), 5 μM of FASUDIL (B), and 0.5 μM of SR3677 (C) for 4 weeks in a 5% CO2 incubator at 37° C. The culture media were changed with new culture media respectively supplemented with 5 μM of Y-27632, 5 μM of FASUDIL, and 0.5 μM of SR3677 at every 4 days. Cell cycles were measured using a Muse™ Cell Cycle Kit (MERCK Millipore, MCH100106) in accordance with manufacturer's manuals. Light having a wavelength of 488 nm was irradiated to the cells using a Muse™ Cell Analyzer (MERCK Millipore) and light emission at 520 nm was measured. The results were analyzed using Cell Quest 3.2 software (Beckton Dickinson). The control group was prepared in the same manner, except that 0.05 (v/v) % of DMSO was added thereto.

[2] = tested on: senescent progeric fibroblasts (cell passage 17); test: DNA comet assay; format: cell-based, human; conditions: 4 weeks, vs DMSO, p<0.05, FIG. 21
Method: The degrees of restoration of DNA damage in senescent progeric fibroblasts by the Rho-kinase inhibitors were identified by a DNA comet assay. This method is performed by detecting DNA fractions cleaved by ultraviolet (UV) irradiation. This method is based on gel electrophoresis. During gel electrophoresis, damaged DNA migrates farther than normal DNA forming a tail like a comet-tail. Then, a slide was stained with SYBR Green, and the length of a tail of a DNA fraction was measured using a fluorescence microscope to identify the degree of DNA damage.
FIG. 21 is a graph displaying degrees of DNA damage in progeric fibroblasts (cell passage 17) cultured in the presence of Rho-kinase inhibitors Y-27632 (5 μM), Fasudil (5 μM), and SR3677 (0.5 μM) measured by a DNA comet assay indicating the degree of DNA damage. In FIG. 21, senescent progeric cells (cell passage 17) were cultured in culture media supplemented with 5 μM of Y-27632, 5 μM of FASUDIL, and 0.5 μM of SR3677 for 4 weeks in a 5% CO2 incubator at 37° C. The culture media were changed at every 4 days with new culture media supplemented with 5 μM of Y-27632, 5 μM of FASUDIL, and 0.5 μM of SR3677. Cells having a cell doubling time of 6 to 7 days were used as young cells. A negative control group was prepared in the same manner, except that DMSO was used. […] Thus, it was confirmed that the degree of DNA damage increases in senescent cells. […] In FIG. 21, * indicates statistically significant (p<0.05).

[3] = tested on: senescent fibroblasts (after 37 cell passages); test: microscopic observation of cell number and shape; format: cell-based, human; conditions: 5 μM, 4 weeks, FIG. 3
Method: In addition, after senescent fibroblasts (after 37 cell passages) were cultured in the same culture media and same conditions as described above in the presence of 0.05 (v/v) % of DMSO and Y-27632 (5 μM), shapes of the cells were observed using a microscope. FIG. 3 is a microscopic image illustrating cell shapes of senescent fibroblasts (after 37 cell passages) cultured in the presence of Y-27632 for 4 weeks.

[4] = tested on: full-thickness punch-biopsy wounds on the dorsal skin of old (19 months old) male C57BL/6J mice; test: cutaneous wound healing assay in aged mice; format: in vivo, mouse; conditions: 0.5 mL 10 μM in 30% Pluronic gel applied to wounds every day, FIG. 23
Method: To further test whether ROCK inhibitor can promote cutaneous wound healing in old (19 months old) male mice (C57BL/6J mice), four full-thickness punch-biopsy wounds (8 mm in diameter)(four wound sites/mouse, five mice/group) were created on the dorsal skin of mouse, 0.5 mL 10 μM Y-27632 in 30% Pluronic gel (Pluronic F-127 Sigma, P2443-1KG) was applied to wounds every day, and then covered the wounds with Telfa sponges (Kendall Health Care, Mansfield, Mass., USA). DMSO was used as a control. All animal studies were reviewed and approved by the […] Animal Care and Use Committee of SKKU School of Medicine (SUSM). SUSM is an Association for Assessment and Accreditation of Laboratory Animal Care international accredited facility and abides by the Institute for Laboratory Animal Research guide. Wounds were photographed for 10 days. Immunohistochemistry analyses were performed on 5 μm paraffin embedded sections as described previously (Lin et. al., 2004. Developmental Biology 270, 474-486). Primary antibodies used for immunohistochemistry were mouse anti-α-smooth muscle actin (Sigma, F3777-2ML, 1:500), and mouse anti-PCNA (Santa Cruz Biotechnology, SC-56, 1:500). Secondary antibodies used for immunohistochemistry were EnVisionTM Detection System (DAKO, […]). […]

[5] = tested on: wound tissue of old (19 months old) male C57BL/6J mice; test: immunohistochemistry and Masson's trichrome staining of wound tissue sections; format: in vivo, mouse; conditions: 10 μM in 30% Pluronic gel topical daily
Method: To further test whether ROCK inhibitor can promote cutaneous wound healing in old (19 months old) male mice (C57BL/6J mice), four full-thickness punch-biopsy wounds (8 mm in diameter)(four wound sites/mouse, five mice/group) were created on the dorsal skin of mouse, 0.5 mL 10 μM Y-27632 in 30% Pluronic gel (Pluronic F-127 Sigma, P2443-1KG) was applied to wounds every day, and then covered the wounds with Telfa sponges (Kendall Health Care, Mansfield, Mass., USA). DMSO was used as a control. All animal studies were reviewed and approved by the […] Animal Care and Use Committee of SKKU School of Medicine (SUSM). SUSM is an Association for Assessment and Accreditation of Laboratory Animal Care international accredited facility and abides by the Institute for Laboratory Animal Research guide. Wounds were photographed for 10 days. Immunohistochemistry analyses were performed on 5 μm paraffin embedded sections as described previously (Lin et. al., 2004. Developmental Biology 270, 474-486). Primary antibodies used for immunohistochemistry were mouse anti-α-smooth muscle actin (Sigma, F3777-2ML, 1:500), and mouse anti-PCNA (Santa Cruz Biotechnology, SC-56, 1:500). Secondary antibodies used for immunohistochemistry were EnVisionTM Detection System (DAKO, […]). Masson's trichrome staining was performed according to the manufacturer's instructions (Polysciences Inc., Warrington Pa., USA). An immunohistochemical analysis was carried out to investigate the mechanism underlying the wound-healing process. […] FIG. 24 represents an immunohistochemical experimental result showing that Y-27632 treatment plays an important role in wound healing in old mouse (19 months old). Wound tissue sections were also subjected to Masson's trichrome staining to assess collagen deposition in the cross-sectional area of remodeled tissue.

SMILES: O=S(=O)(c1cccc2cnccc12)N1CCCNCC1 [FASUDIL, 5-(1,4-diazepane-1-sulfonyl)isoquinoline]
- number of cells in G0/G1 phases [1]: less than that of cells in S and G2/M phases
- DNA damage (Tail Moment) ([2]; 5 μM): considerably reduced

SMILES: CN(C)CCOc1cc(-c2cn[nH]c2)ccc1NC(=O)C1COc2ccccc2O1 (centres unmarked) [SR3677]
- DNA damage (Tail Moment) ([2]; 0.5 μM): considerably reduced

SMILES: C[C@@H](N)[C@H]1CC[C@H](C(=O)Nc2ccncc2)CC1 [Y-27632, (1R,4R)-4-((R)-1-aminoethyl)-N-(pyridin-4-yl)cyclohexanecarboxamide]
- cell shape [3]: spindle shape generally found in young cells
- numbers of cells ([3]; vs DMSO): greater than that of the control group
- number of cells in G0/G1 phases [1]: less than that of cells in S and G2/M phases
- DNA damage (Tail Moment) ([2]; 5 μM): considerably reduced
- wound healing (wound appearance) ([4]; day 10, DMSO-treated wounds still showed remnants of scabs): near completion
- wound healing process (wound size) ([4]; early points (days 3), vs DMSO, P<0.01): markedly accelerated
- Masson's trichrome staining (collagen deposition) ([5]; DMSO: diffuse in granulation tissue, FIG. 24): strong in the dermis area
- site of proliferation by PCNA immunolabeling ([5]; DMSO: selective proliferation in granulation tissue, FIG. 24): proliferation was observed in the supra basal area of epidermis
- α-SMA immunoreactivity in wound area ([5]; control: high in granulation tissue, FIG. 24): diffuse in the dermis and was correlated with the appearance of collagen fibers
- collagen thickness ([5]; relative to DMSO, P<0.01, FIG. 25): increased; also recorded: more dense and thicker collagen
- number of PCNA-positive cells in the epidermis ([5]; vs control group, P<0.01, FIG. 26): higher
